Assay results: US11279733B2, “Peptide antibiotics” (priority 2017, dated 2022)
≈ marks a conversion by molar mass, not a printed value. Read-outs that look alike come from different tables or passages of the source. Positions of bridges follow the written chain, without caps; N, C: chain ends. Non-standard residues stand in square brackets, D forms with d. Residues, ends and D or L forms follow the SMILES beside them. *: point of attachment. Decanoyl(3R-OH) = CCCCCCC[C@@H](O)CC(=O)*; dBip = N[C@H](Cc1ccc(-c2ccccc2)cc1)C(=O)O; Phe(4-NH2) = Nc1ccc(C[C@H](N)C(=O)O)cc1; X4 = CCCCCOc1ccc(C(=O)*)cc1; dDab = NCC[C@@H](N)C(=O)O; Dab = NCC[C@H](N)C(=O)O

Legend:
A. baumannii GN_093 PmxR = details: GN 093 PmxR
Experimental: (§1) Bacteria were either obtained from American Type Culture Collection (ATCC; Manassas, Va., USA) or independent academic clinical isolate collections, as listed in Table 18 below. Bacteria were cultured in Nutrient broth (NB; Bacto Laboratories, catalogue No. 234000) or Mueller Hinton broth (MHB; Bacto Laboratories, catalogue No. 211443) at 37° C. overnight with shaking (˜180 RPM). A sample of each culture was then diluted 50-fold in fresh MHB and incubated at 37° C. for 2-3 h with shaking (˜180 RPM). Compound stock solutions were prepared as 0.64 mg/mL or 2.56 mg/mL in water. The compounds, at twice the final desired concentration, were serially diluted 2-fold across the wells of 96-well plates (Polystyrene, Corning, catalogue No. 3370). Mid-log phase bacterial cultures (after 2-3 h incubation) were diluted to a final concentration of 1×10^6 colony forming units (CFU)/mL, and 50 μL was added to each well giving a final cell density of 5×10^5 and a compound concentration range of 32 μg/mL to 0.015 μg/mL (128-0.06 μg/mL against P. aeruginosa PA9704).

A. baumannii ATCC 19606 = details: ATCC 19606
Experimental: as §1

[1] = system: S. aureus ATCC 25923, MSSA; details: ATCC 25923
Experimental: as §1

[2] = system: P. aeruginosa GN_105, PmxR; details: GN 105, PmxR
Experimental: as §1

[3] = system: K. pneumoniae ATCC 700603, MDR; details: ATCC 700603
Experimental: as §1

[4] = system: K. pneumoniae GN_106, PmxR; details: GN 106, PmxR
Experimental: as §1

P. aeruginosa ATCC 27853 = details: ATCC 27853
Experimental: as §1

[5] = system: K. pneumoniae GN_102 PmxR; details: GN 102 PmxR
Experimental: as §1

E. coli ATCC 25922 = details: ATCC 25922
Experimental: as §1

[6] = system: P. aeruginosa GN_043, PmxR; details: for MIC, P. aeruginosa FADDI-PA070, PmxR: Table 5, polymyxin-resistant
Experimental: as §1

K. pneumoniae ATCC 13883 = details: ATCC 13883
Experimental: as §1

[7] = system: K. pneumoniae ATCC BAA-2146, NDM-1 pos; details: ATCC BAA-2146
Experimental: as §1

| Structure (SMILES) | MIC A. baumannii GN_093 PmxR (A. baumannii GN_093 PmxR) | MIC A. baumannii ATCC 19606 (A. baumannii ATCC 19606) | MIC S. aureus ATCC 25923, MSSA [1] | MIC P. aeruginosa GN_105, PmxR [2] | MIC K. pneumoniae ATCC 700603, MDR [3] | MIC K. pneumoniae GN_106, PmxR [4] | MIC P. aeruginosa ATCC 27853 (P. aeruginosa ATCC 27853) | MIC K. pneumoniae GN_102 PmxR [5] | MIC E. coli ATCC 25922 (E. coli ATCC 25922) | MIC K. pneumoniae ATCC 13883 (K. pneumoniae ATCC 13883) | MIC K. pneumoniae ATCC BAA-2146, NDM-1 pos [7] | MIC, A. baumannii Cl Ptyela 10073 4512:2, PmxR (A. baumannii GN_093 PmxR) | MIC, A. baumannii ATCC 19606 (A. baumannii ATCC 19606) | MIC, S. Aureus ATCC 25923, MSSA [1] | MIC, P. aeruginosa PA9704, PmxR [2] | MIC, K. pneumoniae ATCC 700603, MDR [3] | MIC, K. pneumoniae Cl 138-16347-20362, PmxR [4] | MIC, P. aeruginosa ATCC 27853 (P. aeruginosa ATCC 27853) | MIC, K. pneumoniae Cl Koprana 10065 0661:1, PmxR [5] | MIC, E. coli ATCC 25922 (E. coli ATCC 25922) | other results |
| --- | --- | --- | --- | --- | --- | --- | --- | --- | --- | --- | --- | --- | --- | --- | --- | --- | --- | --- | --- | --- | --- |
| CCCCCOc1ccc(C(=O)N[C@H](CCN)C(=O)N[C@H]2CCNC(=O)[C@H](CC(C)C)NC(=O)[C@H](CCN)NC(=O)[C@H](CCN)NC(=O)[C@H](CC(C)C)NC(=O)[C@@H](Cc3ccccc3)NC(=O)[C@H](CCN)NC2=O)cc1 [compound 6528, 4-(pentyloxy)benzoic acid-D-Dab-cyc[L-Dab-L-Dab-D-Phe-L-Leu-L-Dab-L-Dab-L-Leu]] (X4-[dDab][Dab][Dab][dF]L[Dab][Dab]L; lactam 2-C) | 32 µg/mL (≈ 30.1 µM) | >32 µg/mL | 32 µg/mL (≈ 30.1 µM) | 4 µg/mL (≈ 3.76 µM) | 16 µg/mL (≈ 15 µM) | 32 µg/mL (≈ 30.1 µM) | 1 µg/mL (≈ 0.94 µM) | >32 µg/mL | 2 µg/mL (≈ 1.88 µM) | 8 µg/mL (≈ 7.52 µM) | 8 µg/mL (≈ 7.52 µM) |  |  |  |  |  |  |  |  |  | MIC P. aeruginosa GN_043, PmxR [6]: 1 µg/mL (≈ 0.94 µM) |
| CCCCCCC[C@@H](O)CC(=O)N[C@@H](CCN)C(=O)N[C@@H]1CCNC(=O)[C@H](CC(C)C)NC(=O)[C@H](CCN)NC(=O)[C@H](CCN)NC(=O)[C@H](CC(C)C)NC(=O)[C@@H](Cc2ccc(-c3ccccc3)cc2)NC(=O)[C@H](CCN)NC1=O [compound 6661, 3(R)OH-nC9CO-L-Dab-cyc[D-Dab-L-Dab-D-Bip-L-Leu-L-Dab-L-Dab-L-Leu]] ({Decanoyl(3R-OH)}-[Dab][dDab][Dab][dBip]L[Dab][Dab]L; lactam 2-C) | >32 µg/mL | >32 µg/mL | 8 µg/mL (≈ 7.14 µM) | 8 µg/mL (≈ 7.14 µM) | 32 µg/mL (≈ 28.6 µM) | >32 µg/mL | 8 µg/mL (≈ 7.14 µM) | >32 µg/mL | 32 µg/mL (≈ 28.6 µM) | 32 µg/mL (≈ 28.6 µM) | 32 µg/mL (≈ 28.6 µM) |  |  |  |  |  |  |  |  |  | MIC P. aeruginosa GN_043, PmxR ([6]; P. aeruginosa GN_043, PmxR): >32 µg/mL |
| CCCCCCC[C@@H](O)CC(=O)N[C@H](CCN)C(=O)N[C@H]1CCNC(=O)[C@H](CC(C)C)NC(=O)[C@H](CCN)NC(=O)[C@H](CCN)NC(=O)[C@H](CC(C)C)NC(=O)[C@@H](Cc2ccccc2)NC(=O)[C@H](CCCNC(=N)N)NC1=O [compound 8634, 3(R)OH-nC9CO-D-Dab-cyc[L-Dab-L-Arg-D-Phe-L-Leu-L-Dab-L-Dab-L-Leu]] ({Decanoyl(3R-OH)}-[dDab][Dab]R[dF]L[Dab][Dab]L; lactam 2-C) |  |  |  |  |  |  |  |  |  |  |  | 32 µg/mL (≈ 29.1 µM) | 16 µg/mL (≈ 14.5 µM) | 16 µg/mL (≈ 14.5 µM) | 4 µg/mL (≈ 3.63 µM) | 4 µg/mL (≈ 3.63 µM) | 8 µg/mL (≈ 7.27 µM) | 4 µg/mL (≈ 3.63 µM) | 4 µg/mL (≈ 3.63 µM) | 8 µg/mL (≈ 7.27 µM) | MIC, P. aeruginosa FADDI-PA070, PmxR [6]: 2 µg/mL (≈ 1.82 µM); MIC, K. pneumoniae ATCC 13883 (K. pneumoniae ATCC 13883): 8 µg/mL (≈ 7.27 µM); MIC, K. pneumoniae ATCC BAA-2146, NDM-1 pos [7]: 8 µg/mL (≈ 7.27 µM) |
| CCCCCCC[C@@H](O)CC(=O)N[C@H](CCN)C(=O)N[C@H]1CCNC(=O)[C@H](CC(C)C)NC(=O)[C@H](CCN)NC(=O)[C@H](Cc2ccc(N)cc2)NC(=O)[C@H](CC(C)C)NC(=O)[C@@H](Cc2ccccc2)NC(=O)[C@H](CCN)NC1=O [compound 8642, 3(R)OH-nC9CO-D-Dab-cyc[L-Dab-L-DAB-D-Phe-L-Leu-L-4NH2Phe-L-Dab-L-Leu]] ({Decanoyl(3R-OH)}-[dDab][Dab][Dab][dF]L[Phe(4-NH2)][Dab]L; lactam 2-C) |  |  |  |  |  |  |  |  |  |  |  | 16 µg/mL (≈ 14.5 µM) | 8 µg/mL (≈ 7.23 µM) | 8 µg/mL (≈ 7.23 µM) | 8 µg/mL (≈ 7.23 µM) | 4 µg/mL (≈ 3.62 µM) | 4 µg/mL (≈ 3.62 µM) | 8 µg/mL (≈ 7.23 µM) | 2 µg/mL (≈ 1.81 µM) | 4 µg/mL (≈ 3.62 µM) | MIC, P. aeruginosa FADDI-PA070, PmxR [6]: 8 µg/mL (≈ 7.23 µM); MIC, K. pneumoniae ATCC 13883 (K. pneumoniae ATCC 13883): 4 µg/mL (≈ 3.62 µM); MIC, K. pneumoniae ATCC BAA-2146, NDM-1 pos [7]: 4 µg/mL (≈ 3.62 µM) |
